# Experimental data from patent publication US20050222260A1, “(2S)-2-amino-a-{[2-(ethanimidoylamino) ethyl]thio}butanoic acid, a nitric oxide synthase inhibitor, in stabilized pharmaceutical dosage forms” (priority 2003, published 2005).
# Experiments:
# [1] = Compatibility with standard pharmaceutical excipients of solid oral dosage forms; format: physicochemical; settings: excipients conventionally used for solid oral dosage forms such as tablets; e.g. as compound with phosphoric acid
# [2] = compared with the hydrochloride salts exemplified in WO98/30537; cited from earlier work
Structure (SMILES),compatibility with standard pharmaceutical excipients [1],hygroscopicity [2]
CC(=N)NCCSCC[C@H](N)C(=O)O [(2S)-2-amino4-{[2-(ethanimidoylamino)ethyl]thio}butanoic acid],exhibits incompatability with standard pharmaceutical excipients,
CC(=N)NCCSCC[C@H](N)C(=O)O.O=P(O)(O)O [phosphate salt of (2S)-2-amino4-{[2-(ethanimidoylamino)ethyl]thio}butanoic acid],,considerably less hygroscopic
